Experimental data: ChEMBL document CHEMBL1177655, “Synthesis and inhibitory activities of novel C-3 substituted azafagomines: a new type of selective inhibitors of α-L-fucosidases” (Bioorg Med Chem, 2010)
The source made the active and inactive calls. No cut-off for these calls is given here.

Tests used:
[1] = biological target: T1, Tissue alpha-L-fucosidase (Bos taurus) (UniProt Q2KIM0); test: Inhibition of bovine kidney alpha L-fucosidase at 1 mM
T1 sequence (whole entry): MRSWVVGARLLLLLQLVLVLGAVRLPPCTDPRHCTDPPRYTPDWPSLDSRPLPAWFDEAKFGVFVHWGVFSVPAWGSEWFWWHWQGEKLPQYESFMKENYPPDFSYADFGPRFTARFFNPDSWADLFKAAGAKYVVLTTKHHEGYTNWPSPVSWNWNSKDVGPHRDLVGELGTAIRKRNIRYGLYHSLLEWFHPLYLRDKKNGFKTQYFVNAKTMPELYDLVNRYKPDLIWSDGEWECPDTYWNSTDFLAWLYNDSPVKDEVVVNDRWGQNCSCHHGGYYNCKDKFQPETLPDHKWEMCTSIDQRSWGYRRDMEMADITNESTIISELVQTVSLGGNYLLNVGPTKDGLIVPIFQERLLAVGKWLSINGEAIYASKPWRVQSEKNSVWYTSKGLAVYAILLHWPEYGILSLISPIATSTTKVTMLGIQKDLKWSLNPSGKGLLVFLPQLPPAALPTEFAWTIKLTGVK

Prunus dulcis [2] = test: Inhibition of almond beta glucosidase at 1 mM
Saccharomyces cerevisiae [3] = test: Inhibition of yeast maltase at 1 mM
Aspergillus niger [4] = test: Inhibition of Aspergillus niger amyloglucosidase at 1 mM
[5] = biological target: Beta-galactosidase (Escherichia coli K-12) (UniProt P00722); test: Inhibition of Escherichia coli beta galactosidase at 1 mM
[6] = biological target: T2, Tissue alpha-L-fucosidase (Bos taurus, UniProt Q2KIM0); test: Inhibition of bovine kidney alpha L-fucosidase
T2 sequence (Q2KIM0 whole entry): T1 sequence (whole entry)

[7] = biological target: T1, Tissue alpha-L-fucosidase (Bos taurus); test: Inhibition of bovine kidney alpha L-fucosidase at 0.1 mM
[8] = biological target: Beta-galactosidase (Escherichia coli K-12) (UniProt P00722); test: Inhibition of Escherichia coli beta galactosidase at 0.1 mM
Aspergillus niger [9] = test: Inhibition of Aspergillus niger amyloglucosidase at 0.1 mM
Prunus dulcis [10] = test: Inhibition of almond beta glucosidase at 0.1 mM
Saccharomyces cerevisiae [11] = test: Inhibition of yeast maltase at 0.1 mM

Sequence of Beta-galactosidase (Escherichia coli K-12) (P00722 whole entry): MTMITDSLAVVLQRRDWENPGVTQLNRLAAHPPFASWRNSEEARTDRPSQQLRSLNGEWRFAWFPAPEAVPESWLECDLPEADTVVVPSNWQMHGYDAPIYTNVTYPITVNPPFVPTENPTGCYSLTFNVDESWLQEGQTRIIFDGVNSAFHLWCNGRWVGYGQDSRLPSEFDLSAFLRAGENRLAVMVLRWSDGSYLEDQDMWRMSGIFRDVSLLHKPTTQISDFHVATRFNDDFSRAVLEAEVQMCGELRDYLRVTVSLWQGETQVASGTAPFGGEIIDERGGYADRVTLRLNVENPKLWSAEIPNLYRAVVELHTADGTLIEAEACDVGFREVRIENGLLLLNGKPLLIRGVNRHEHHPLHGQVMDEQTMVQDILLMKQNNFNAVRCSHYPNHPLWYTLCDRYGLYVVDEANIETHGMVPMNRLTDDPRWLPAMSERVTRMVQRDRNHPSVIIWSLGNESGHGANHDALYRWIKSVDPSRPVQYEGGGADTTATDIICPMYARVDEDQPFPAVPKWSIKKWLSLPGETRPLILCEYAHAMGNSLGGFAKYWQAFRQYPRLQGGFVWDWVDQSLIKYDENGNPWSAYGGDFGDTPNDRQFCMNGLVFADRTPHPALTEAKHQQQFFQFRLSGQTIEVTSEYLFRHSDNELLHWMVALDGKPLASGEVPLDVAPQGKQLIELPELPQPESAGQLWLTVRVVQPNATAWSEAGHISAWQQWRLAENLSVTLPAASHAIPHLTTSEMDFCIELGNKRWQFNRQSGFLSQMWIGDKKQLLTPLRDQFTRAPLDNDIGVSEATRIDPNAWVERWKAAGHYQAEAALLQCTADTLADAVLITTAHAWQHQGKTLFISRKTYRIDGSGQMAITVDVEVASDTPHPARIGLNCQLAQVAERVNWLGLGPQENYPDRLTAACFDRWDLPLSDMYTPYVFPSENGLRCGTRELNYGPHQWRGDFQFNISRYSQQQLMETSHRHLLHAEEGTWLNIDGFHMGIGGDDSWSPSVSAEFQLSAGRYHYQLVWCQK

SMILES | inhibition [1] | inhibition (Prunus dulcis [2]) | inhibition (Saccharomyces cerevisiae [3]) | inhibition (Aspergillus niger [4]) | inhibition [5] | IC50 [6] [µM] | inhibition [7] | inhibition [8] | inhibition (Aspergillus niger [9]) | inhibition (Prunus dulcis [10]) | inhibition (Saccharomyces cerevisiae [11]) | Ki [6] [µM]
C[C@H]1NN[C@@H](CNC(=O)c2ccc(-c3ccccc3)cc2)[C@H](O)[C@@H]1O | 53% | inactive | inactive | inactive | inactive | – | – | – | – | – | – | –
C[C@H]1NN[C@@H](CNC(=O)[C@@H](N)Cc2ccccc2)[C@H](O)[C@@H]1O | inactive | inactive | inactive | inactive | inactive | – | – | – | – | – | – | –
C[C@@H]1NN[C@@H](CNC(=O)[C@@H](N)Cc2ccccc2)[C@H](O)[C@@H]1O | 82% | inactive | inactive | inactive | inactive | 283 | – | – | – | – | – | –
C[C@@H]1[C@@H](O)[C@@H](O)[C@H](CNC(=O)[C@@H](N)Cc2ccccc2)NN1C(=O)OCc1ccccc1 | 16% | inactive | inactive | inactive | inactive | – | – | – | – | – | – | –
C[C@H]1NN[C@@H](CN)[C@H](O)[C@@H]1O | 53% | inactive | inactive | inactive | inactive | – | – | – | – | – | – | –
C[C@@H]1[C@@H](O)[C@@H](O)[C@H](CO)NN1C(=O)OCc1ccccc1 | 27% | inactive | inactive | inactive | inactive | – | – | – | – | – | – | –
C[C@@H]1NN[C@@H](CNC(=O)[C@@H](N)CCCCN)[C@H](O)[C@@H]1O | 77% | inactive | inactive | inactive | inactive | 535 | – | – | – | – | – | –
C[C@H]1[C@@H](O)[C@@H](O)[C@H](CNC(=O)[C@@H](N)CCCCN)NN1C(=O)OCc1ccccc1 | 77% | inactive | inactive | inactive | inactive | – | – | – | – | – | – | –
CCCCCCCCCCCC(=O)NC[C@@H]1NN[C@H](C)[C@@H](O)[C@H]1O | 40% | inactive | inactive | 24% | inactive | – | – | – | – | – | – | –
C[C@@H]1[C@@H](O)[C@@H](O)[C@H](CNC(=O)c2ccc(-c3ccccc3)cc2)NN1C(=O)OCc1ccccc1 | – | – | – | – | – | – | inactive | inactive | inactive | inactive | inactive | –
C[C@@H]1NN[C@@H](CNC(=O)c2ccc(-c3ccccc3)cc2)[C@H](O)[C@@H]1O | – | – | – | – | – | 8.6 | 85% | inactive | 21% | inactive | inactive | 1
C[C@H]1[C@@H](O)[C@@H](O)[C@H](CN)NN1C(=O)OCc1ccccc1 | 92% | inactive | inactive | inactive | 32% | 117 | – | – | – | – | – | –
C[C@@H]1NN[C@@H](CN)[C@H](O)[C@@H]1O | 44% | inactive | inactive | inactive | inactive | – | – | – | – | – | – | –
C[C@@H]1[C@@H](O)[C@@H](O)[C@H](CN)NN1C(=O)OCc1ccccc1 | 54% | inactive | inactive | inactive | inactive | – | – | – | – | – | – | –
CCCCCCCCCCCC(=O)NC[C@@H]1NN[C@@H](C)[C@@H](O)[C@H]1O | 70% | inactive | 51% | inactive | inactive | – | – | – | – | – | – | –
C[C@@H]1NN[C@@H](CO)[C@H](O)[C@@H]1O | 97% | inactive | inactive | inactive | inactive | 30 | – | – | – | – | – | 4.2
CCCCCCCCCCCC(=O)NC[C@@H]1NN(C(=O)OCc2ccccc2)[C@@H](C)[C@@H](O)[C@H]1O | – | inactive | inactive | inactive | inactive | – | 5% | – | – | – | – | –
C[C@H]1NN[C@@H](CO)[C@H](O)[C@@H]1O | 17% | 23% | inactive | inactive | inactive | – | – | – | – | – | – | –
C[C@H]1[C@@H](O)[C@@H](O)[C@H](CO)NN1C(=O)OCc1ccccc1 | 35% | inactive | inactive | inactive | inactive | – | – | – | – | – | – | –
C[C@H]1[C@@H](O)[C@@H](O)[C@H](CNC(=O)[C@@H](N)Cc2ccccc2)NN1C(=O)OCc1ccccc1 | 65% | inactive | inactive | inactive | inactive | – | – | – | – | – | – | –
